Experimental data taken from PubChem BioAssay (NCI).
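Cultured in 96-well plates, cells were exposed to test compound for 48 hours across five concentrations. TGI marks complete inhibition of growth.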

Key:
Experiment in all cases: DTP human tumour cell line panel, 48 h
[1] = system: KM12 colon
[2] = system: MALME-3M melanoma
[3] = system: SF-268 CNS
[4] = system: UO-31 renal
[5] = system: LOX IMVI melanoma
[6] = system: SNB-19 CNS
[7] = system: UACC-257 melanoma
[8] = system: NCI-H226 lung
[9] = system: OVCAR-5 ovarian
[10] = system: RXF 393 renal
[11] = system: A549 NSCLC
[12] = system: CAKI-1 renal
[13] = system: M14 melanoma
[14] = system: NCI-H460 lung
[15] = system: KM20L2 colon
[16] = system: TK-10 renal
[17] = system: COLO 205 colon
[18] = system: 786-0 renal
[19] = system: HOP-92 NSCLC
[20] = system: OVCAR-4 ovarian
[21] = system: SK-MEL-2 melanoma
[22] = system: M19-MEL melanoma
[23] = system: SNB-75 CNS
[24] = system: CCRF-CEM leukemia
[25] = system: SF-539 CNS
[26] = system: IGROV1 ovarian
[27] = system: UACC-62 melanoma
[28] = system: HCT-116 colon
[29] = system: HL-60(TB) leukemia
[30] = system: A498 renal
[31] = system: HT29 colon
[32] = system: EKVX NSCLC
[33] = system: SK-MEL-28 melanoma
[34] = system: SK-OV-3 ovarian
[35] = system: SF-295 CNS
[36] = system: DMS 114 small cell lung
[37] = system: LXFL 529 NSCLC
[38] = system: SK-MEL-5 melanoma
[39] = system: OVCAR-3 ovarian
[40] = system: HCC-2998 colon
[41] = system: DMS 273 small cell lung
[42] = system: SW-620 colon
[43] = system: K-562 leukemia
[44] = system: DLD-1 colon
[45] = system: NCI-H23 lung
[46] = system: HCT-15 colon
[47] = system: ACHN renal
[48] = system: NCI-H522 lung
[49] = system: MOLT-4 leukemia
[50] = system: T-47D breast
[51] = system: U251 CNS
[52] = system: MCF7 breast
[53] = system: SN12C renal
[54] = system: MDA-MB-231 breast
[55] = system: HS 578T breast
[56] = system: DU-145 prostate
[57] = system: OVCAR-8 ovarian
[58] = system: SR leukemia
[59] = system: RPMI-8226 leukemia
[60] = system: PC-3 prostate
[61] = system: BT-549 breast
[62] = system: MDA-N
[63] = system: MDA-MB-435
[64] = system: NCI/ADR-RES ovarian
[65] = system: HOP-62 NSCLC
[66] = system: XF 498 CNS
[67] = system: SNB-78 CNS
[68] = system: HOP-18 NSCLC

O=C(Cc1nc2ccc([N+](=O)[O-])cc2[nH]c1=O)C(=O)Nc1ccccc1[N+](=O)[O-]
TGI [1]: > 100 µM
TGI [2]: > 100 µM
TGI [3]: > 100 µM
TGI [4]: > 100 µM
TGI [5]: > 100 µM
TGI [6]: > 100 µM
TGI [7]: > 100 µM
TGI [8]: > 100 µM
TGI [9]: > 100 µM
TGI [10]: > 100 µM
TGI [11]: > 100 µM
TGI [12]: > 100 µM
TGI [13]: > 100 µM
TGI [14]: > 100 µM
TGI [15]: > 100 µM
TGI [16]: > 100 µM
TGI [17]: > 100 µM
TGI [18]: > 100 µM
TGI [19]: > 100 µM
TGI [20]: > 100 µM
TGI [21]: > 100 µM
TGI [22]: > 100 µM
TGI [23]: > 100 µM
TGI [24]: > 100 µM
TGI [25]: > 100 µM
TGI [26]: > 100 µM
TGI [27]: > 100 µM
TGI [28]: > 100 µM
TGI [29]: > 100 µM
TGI [30]: > 100 µM
TGI [31]: > 100 µM
TGI [32]: > 100 µM
TGI [33]: > 100 µM
TGI [34]: > 100 µM
TGI [35]: > 100 µM
TGI [36]: > 100 µM
TGI [37]: > 100 µM
TGI [38]: > 100 µM
TGI [39]: > 100 µM
TGI [40]: > 100 µM
TGI [41]: > 100 µM
TGI [42]: > 100 µM
TGI [43]: > 100 µM
TGI [44]: > 100 µM
TGI [45]: > 100 µM
TGI [46]: > 100 µM
TGI [47]: > 100 µM
TGI [48]: > 100 µM
TGI [49]: > 100 µM

COC(=O)/N=[N+](\[O-])C(c1ccccc1)c1ccccc1
TGI [1]: > 100 µM
TGI [2]: > 100 µM
TGI [3]: > 100 µM
TGI [50]: > 100 µM
TGI [51]: > 100 µM
TGI [4]: 70.9 µM
TGI [5]: > 100 µM
TGI [52]: > 100 µM
TGI [53]: > 100 µM
TGI [54]: > 100 µM
TGI [6]: > 100 µM
TGI [7]: > 100 µM
TGI [8]: > 100 µM
TGI [9]: > 100 µM
TGI [55]: > 100 µM
TGI [56]: > 100 µM
TGI [10]: > 100 µM
TGI [57]: > 100 µM
TGI [11]: > 100 µM
TGI [12]: > 100 µM
TGI [13]: > 100 µM
TGI [14]: > 100 µM
TGI [16]: > 100 µM
TGI [17]: > 100 µM
TGI [18]: > 100 µM
TGI [20]: > 100 µM
TGI [21]: > 100 µM
TGI [23]: > 100 µM
TGI [58]: > 100 µM
TGI [24]: > 100 µM
TGI [59]: > 100 µM
TGI [25]: > 100 µM
TGI [26]: > 100 µM
TGI [27]: > 100 µM
TGI [28]: > 100 µM
TGI [29]: > 100 µM
TGI [30]: > 100 µM
TGI [31]: > 100 µM
TGI [60]: > 100 µM
TGI [61]: > 100 µM
TGI [62]: > 100 µM
TGI [32]: > 100 µM
TGI [33]: > 100 µM
TGI [34]: > 100 µM
TGI [38]: > 100 µM
TGI [39]: > 100 µM
TGI [40]: > 100 µM
TGI [42]: > 100 µM
TGI [63]: > 100 µM
TGI [43]: > 100 µM
TGI [45]: > 100 µM
TGI [46]: > 100 µM
TGI [48]: > 100 µM
TGI [64]: > 100 µM
TGI [49]: > 100 µM

CC(C)OP(=O)(OC(C)C)C(=NCCN=C(NNc1ccccc1[N+](=O)[O-])P(=O)(OC(C)C)OC(C)C)NNc1ccccc1[N+](=O)[O-]
TGI [1]: > 100 µM
TGI [2]: 54.5 µM
TGI [3]: > 100 µM
TGI [65]: > 100 µM
TGI [51]: 83.4 µM
TGI [4]: 71.5 µM
TGI [5]: > 100 µM
TGI [53]: > 100 µM
TGI [6]: > 100 µM
TGI [7]: 84.6 µM
TGI [8]: 67.4 µM
TGI [9]: 72.8 µM
TGI [57]: > 100 µM
TGI [11]: > 100 µM
TGI [12]: > 100 µM
TGI [13]: > 100 µM
TGI [15]: 60.2 µM
TGI [16]: > 100 µM
TGI [17]: 54.9 µM
TGI [18]: > 100 µM
TGI [19]: > 100 µM
TGI [20]: > 100 µM
TGI [21]: 40 µM
TGI [22]: > 100 µM
TGI [23]: > 100 µM
TGI [24]: 70.9 µM
TGI [59]: > 100 µM
TGI [25]: > 100 µM
TGI [26]: 82.7 µM
TGI [27]: 40.6 µM
TGI [28]: > 100 µM
TGI [29]: 74.5 µM
TGI [30]: > 100 µM
TGI [32]: > 100 µM
TGI [33]: > 100 µM
TGI [36]: > 100 µM
TGI [37]: > 100 µM
TGI [39]: > 100 µM
TGI [40]: > 100 µM
TGI [41]: > 100 µM
TGI [42]: > 100 µM
TGI [43]: > 100 µM
TGI [44]: > 100 µM
TGI [45]: > 100 µM
TGI [46]: > 100 µM
TGI [47]: > 100 µM
TGI [48]: > 100 µM
TGI [49]: > 100 µM

COc1ccc(/C=C2\CCC(CCN3CCOCC3)C2=O)cc1 (stereo unspecified)
TGI [1]: > 100 µM
TGI [2]: > 100 µM
TGI [3]: > 100 µM
TGI [65]: > 100 µM
TGI [4]: > 100 µM
TGI [5]: > 100 µM
TGI [53]: > 100 µM
TGI [6]: > 100 µM
TGI [7]: > 100 µM
TGI [8]: > 100 µM
TGI [9]: > 100 µM
TGI [10]: > 100 µM
TGI [57]: > 100 µM
TGI [66]: > 100 µM
TGI [11]: > 100 µM
TGI [12]: > 100 µM
TGI [13]: > 100 µM
TGI [14]: > 100 µM
TGI [15]: > 100 µM
TGI [16]: > 100 µM
TGI [67]: > 100 µM
TGI [18]: > 100 µM
TGI [68]: > 100 µM
TGI [19]: > 100 µM
TGI [20]: > 100 µM
TGI [21]: > 100 µM
TGI [22]: > 100 µM
TGI [23]: > 100 µM
TGI [58]: > 100 µM
TGI [24]: > 100 µM
TGI [59]: > 100 µM
TGI [25]: > 100 µM
TGI [26]: > 100 µM
TGI [27]: > 100 µM
TGI [28]: > 100 µM
TGI [29]: > 100 µM
TGI [30]: > 100 µM
TGI [31]: > 100 µM
TGI [32]: > 100 µM
TGI [33]: > 100 µM
TGI [35]: > 100 µM
TGI [36]: > 100 µM
TGI [37]: > 100 µM
TGI [38]: > 100 µM
TGI [39]: > 100 µM
TGI [40]: > 100 µM
TGI [41]: > 100 µM
TGI [42]: > 100 µM
TGI [43]: > 100 µM
TGI [44]: > 100 µM
TGI [45]: > 100 µM
TGI [46]: > 100 µM
TGI [47]: > 100 µM
TGI [49]: > 100 µM
